Experimental data as given in ChEMBL document CHEMBL1201862, “PubChem BioAssay data set” (2004).
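Step 1: Grow cells in 96-well plates. Step 2: Expose to compound for 48 hours at 5 concentrations. Step 3: Interpolate endpoints linearly; if unreached, use highest concentration. At the GI50, growth is halved.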 Calls of active or inactive are those of the source. Cut-off read from the data, not from the text of the source: active = GI50 up to about 1.1 µM and inactive = higher.

Legend:
Test in all cases: NCI anticancer screen, dose series, 48 h
A498 = system: A498
SF-295 = system: SF-295
LXFL 529 = system: LXFL 529
OVCAR-3 = system: OVCAR-3
SK-OV-3 = system: SK-OV-3
K562 = system: K562
SK-MEL-5 = system: SK-MEL-5
UACC-62 = system: UACC-62
OVCAR-5 = system: OVCAR-5
HCT-15 = system: HCT-15
SNB-78 = system: SNB-78
HL-60 = system: HL-60
CAKI-1 = system: CAKI-1
Malme-3M = system: Malme-3M
DMS-273 = system: DMS-273
NCI-H460 = system: NCI-H460
MOLT-4 = system: MOLT-4
HCT-116 = system: HCT-116
DMS-114 = system: DMS-114
SF-268 = system: SF-268
EKVX = system: EKVX
ACHN = system: ACHN
A549 = system: A549
CCRF-CEM = system: CCRF-CEM
UO-31 = system: UO-31
XF498 = system: XF498
RXF 393 = system: RXF 393
SR = system: SR
UACC-257 = system: UACC-257
786-0 = system: 786-0
RPMI-8226 = system: RPMI-8226
IGROV-1 = system: IGROV-1
HOP-92 = system: HOP-92
NCI-H226 = system: NCI-H226
M14 = system: M14
HT-29 = system: HT-29
KM-20L2 = system: KM-20L2
SW-620 = system: SW-620
SN12C = system: SN12C
SK-MEL-2 = system: SK-MEL-2
OVCAR-4 = system: OVCAR-4
SNB-75 = system: SNB-75
SF-539 = system: SF-539
SNB-19 = system: SNB-19
KM12 = system: KM12
U-251 = system: U-251
LOX IMVI = system: LOX IMVI
M19-MEL = system: M19-MEL
NCI-H522 = system: NCI-H522
COLO 205 = system: COLO 205
OVCAR-8 = system: OVCAR-8
SK-MEL-28 = system: SK-MEL-28
HOP-62 = system: HOP-62
TK-10 = system: TK-10
DLD-1 = system: DLD-1
NCI-H23 = system: NCI-H23
HOP-18 = system: HOP-18
HCC 2998 = system: HCC 2998

## CCCc1ccc(/N=C\c2cc(OC)c(OC)c(OC)c2)cc1
A498
  GI50: > 100 µM (inactive)
SF-295
  GI50: > 100 µM (inactive)
LXFL 529
  GI50: 99.3 µM (inactive)
OVCAR-3
  GI50: > 100 µM (inactive)
SK-OV-3
  GI50: > 100 µM (inactive)
K562
  GI50: 36 µM (inactive)
SK-MEL-5
  GI50: > 100 µM (inactive)
UACC-62
  GI50: > 100 µM (inactive)
OVCAR-5
  GI50: > 100 µM (inactive)
HCT-15
  GI50: > 39.9 µM
SNB-78
  GI50: > 100 µM (inactive)
HL-60
  GI50: 21.5 µM (inactive)
CAKI-1
  GI50: > 100 µM (inactive)
Malme-3M
  GI50: > 100 µM (inactive)
DMS-273
  GI50: > 83.4 µM (inactive)
NCI-H460
  GI50: > 100 µM (inactive)
MOLT-4
  GI50: > 100 µM (inactive)
HCT-116
  GI50: > 63.4 µM (inactive)
DMS-114
  GI50: 18.7 µM (inactive)
SF-268
  GI50: > 100 µM (inactive)
EKVX
  GI50: > 100 µM (inactive)
ACHN
  GI50: > 100 µM (inactive)
A549
  GI50: > 100 µM (inactive)
CCRF-CEM
  GI50: 26.6 µM (inactive)
UO-31
  GI50: > 100 µM (inactive)
XF498
  GI50: > 100 µM (inactive)
RXF 393
  GI50: > 100 µM (inactive)
SR
  GI50: 55.5 µM (inactive)
UACC-257
  GI50: > 100 µM (inactive)
786-0
  GI50: > 100 µM (inactive)
RPMI-8226
  GI50: 24.4 µM (inactive)
IGROV-1
  GI50: > 100 µM (inactive)
HOP-92
  GI50: > 51.3 µM (inactive)
NCI-H226
  GI50: > 100 µM (inactive)
M14
  GI50: > 100 µM (inactive)
HT-29
  GI50: > 87.7 µM (inactive)
KM-20L2
  GI50: > 100 µM (inactive)
SW-620
  GI50: > 100 µM (inactive)
SN12C
  GI50: > 100 µM (inactive)
SK-MEL-2
  GI50: > 100 µM (inactive)
OVCAR-4
  GI50: > 100 µM (inactive)
SNB-75
  GI50: > 100 µM (inactive)
SF-539
  GI50: > 100 µM (inactive)
SNB-19
  GI50: > 100 µM (inactive)
KM12
  GI50: > 100 µM (inactive)
U-251
  GI50: > 100 µM (inactive)
LOX IMVI
  GI50: > 52.1 µM (inactive)
M19-MEL
  GI50: > 100 µM (inactive)
NCI-H522
  GI50: > 59.2 µM (inactive)
COLO 205
  GI50: > 31.6 µM (inactive)
OVCAR-8
  GI50: > 100 µM (inactive)
SK-MEL-28
  GI50: > 100 µM (inactive)
HOP-62
  GI50: > 100 µM (inactive)
TK-10
  GI50: > 100 µM (inactive)
DLD-1
  GI50: > 75.9 µM (inactive)
NCI-H23
  GI50: > 100 µM (inactive)
HOP-18
  GI50: > 100 µM (inactive)

## NC12CC3CC(C1)CC(C(=O)O)(C3)C2
A498
  GI50: > 100 µM (inactive)
SF-295
  GI50: > 100 µM (inactive)
LXFL 529
  GI50: > 100 µM (inactive)
OVCAR-3
  GI50: > 100 µM (inactive)
SK-OV-3
  GI50: > 100 µM (inactive)
K562
  GI50: 2.73 µM (inactive)
SK-MEL-5
  GI50: > 100 µM (inactive)
UACC-62
  GI50: > 100 µM (inactive)
OVCAR-5
  GI50: > 100 µM (inactive)
HCT-15
  GI50: > 100 µM
SNB-78
  GI50: > 100 µM (inactive)
HL-60
  GI50: > 100 µM (inactive)
CAKI-1
  GI50: > 100 µM (inactive)
DMS-273
  GI50: > 100 µM (inactive)
NCI-H460
  GI50: > 100 µM (inactive)
MOLT-4
  GI50: > 100 µM (inactive)
HCT-116
  GI50: > 100 µM (inactive)
DMS-114
  GI50: > 100 µM (inactive)
SF-268
  GI50: > 100 µM (inactive)
EKVX
  GI50: > 100 µM (inactive)
ACHN
  GI50: > 100 µM (inactive)
A549
  GI50: > 100 µM (inactive)
CCRF-CEM
  GI50: > 100 µM (inactive)
UO-31
  GI50: > 100 µM (inactive)
XF498
  GI50: > 100 µM (inactive)
SR
  GI50: > 100 µM (inactive)
UACC-257
  GI50: > 100 µM (inactive)
786-0
  GI50: > 100 µM (inactive)
RPMI-8226
  GI50: > 100 µM (inactive)
IGROV-1
  GI50: > 100 µM (inactive)
HOP-92
  GI50: > 100 µM (inactive)
M14
  GI50: > 100 µM (inactive)
HT-29
  GI50: > 100 µM (inactive)
KM-20L2
  GI50: > 100 µM (inactive)
SW-620
  GI50: > 100 µM (inactive)
SN12C
  GI50: > 100 µM (inactive)
HCC 2998
  GI50: > 100 µM (inactive)
OVCAR-4
  GI50: > 100 µM (inactive)
SNB-75
  GI50: > 100 µM (inactive)
SF-539
  GI50: > 100 µM (inactive)
SNB-19
  GI50: > 100 µM (inactive)
KM12
  GI50: > 100 µM (inactive)
U-251
  GI50: > 100 µM (inactive)
LOX IMVI
  GI50: > 100 µM (inactive)
M19-MEL
  GI50: > 100 µM (inactive)
NCI-H522
  GI50: > 100 µM (inactive)
OVCAR-8
  GI50: > 100 µM (inactive)
SK-MEL-28
  GI50: > 100 µM (inactive)
HOP-62
  GI50: > 100 µM (inactive)
TK-10
  GI50: > 100 µM (inactive)
DLD-1
  GI50: > 100 µM (inactive)
NCI-H23
  GI50: > 100 µM (inactive)
HOP-18
  GI50: > 100 µM (inactive)

## CCN1C(=O)C(N=[N+]=[N-])(c2ccccc2)C(=O)c2ccccc21 (stereo unspecified)
SF-295
  GI50: 60.3 µM (inactive)
LXFL 529
  GI50: 38.9 µM (inactive)
OVCAR-3
  GI50: 56.8 µM (inactive)
SK-OV-3
  GI50: > 100 µM (inactive)
K562
  GI50: 39 µM (inactive)
SK-MEL-5
  GI50: 56.5 µM (inactive)
UACC-62
  GI50: 62.8 µM (inactive)
OVCAR-5
  GI50: > 100 µM (inactive)
HCT-15
  GI50: 59.2 µM
SNB-78
  GI50: 98.2 µM (inactive)
HL-60
  GI50: 21.6 µM (inactive)
CAKI-1
  GI50: > 100 µM (inactive)
Malme-3M
  GI50: 67 µM (inactive)
DMS-273
  GI50: > 100 µM (inactive)
NCI-H460
  GI50: 94.8 µM (inactive)
MOLT-4
  GI50: 43.1 µM (inactive)
HCT-116
  GI50: 61.8 µM (inactive)
DMS-114
  GI50: 41.7 µM (inactive)
SF-268
  GI50: 83.2 µM (inactive)
EKVX
  GI50: 32.9 µM (inactive)
ACHN
  GI50: > 100 µM (inactive)
A549
  GI50: 55.8 µM (inactive)
CCRF-CEM
  GI50: 55.1 µM (inactive)
UO-31
  GI50: 43.7 µM (inactive)
XF498
  GI50: 0.946 µM (active)
RXF 393
  GI50: 99.1 µM (inactive)
SR
  GI50: 36.3 µM (inactive)
UACC-257
  GI50: 46.6 µM (inactive)
786-0
  GI50: > 100 µM (inactive)
RPMI-8226
  GI50: 35.6 µM (inactive)
IGROV-1
  GI50: > 100 µM (inactive)
HOP-92
  GI50: 31.4 µM (inactive)
NCI-H226
  GI50: 46.7 µM (inactive)
M14
  GI50: 41.9 µM (inactive)
HT-29
  GI50: > 100 µM (inactive)
KM-20L2
  GI50: > 100 µM (inactive)
SW-620
  GI50: > 100 µM (inactive)
SN12C
  GI50: > 100 µM (inactive)
SK-MEL-2
  GI50: > 100 µM (inactive)
HCC 2998
  GI50: > 100 µM (inactive)
OVCAR-4
  GI50: 59 µM (inactive)
SNB-75
  GI50: 83 µM (inactive)
SF-539
  GI50: > 100 µM (inactive)
SNB-19
  GI50: > 100 µM (inactive)
KM12
  GI50: > 100 µM (inactive)
U-251
  GI50: > 100 µM (inactive)
LOX IMVI
  GI50: > 100 µM (inactive)
M19-MEL
  GI50: 43.1 µM (inactive)
NCI-H522
  GI50: > 100 µM (inactive)
COLO 205
  GI50: > 100 µM (inactive)
SK-MEL-28
  GI50: > 100 µM (inactive)
HOP-62
  GI50: > 100 µM (inactive)
TK-10
  GI50: > 100 µM (inactive)
DLD-1
  GI50: > 100 µM (inactive)
NCI-H23
  GI50: 57.1 µM (inactive)
HOP-18
  GI50: > 100 µM (inactive)
